Measured values as given in patent publication US6861429B2, “2,3-diaryl-pyrazolo[1,5-b]pyridazines derivatives, their preparation and their use as cyclooxygenase 2 (COX-2) inhibitors” (SmithKline Beecham Corporation, priority 1997, dated 2005).

Tests used:
human COX-2 = molecular target: T1, human COX-2 (Homo sapiens, UniProt P35354); assay: Inhibition of PGE2 release in COS cells stably transfected with human COX-2; assay type: cell-based; settings: 30 μM arachidonic acid, PGE2 release by enzyme immunoassay
T1 construct: expressed in transfected cells
T1 sequence (P35354 18-604): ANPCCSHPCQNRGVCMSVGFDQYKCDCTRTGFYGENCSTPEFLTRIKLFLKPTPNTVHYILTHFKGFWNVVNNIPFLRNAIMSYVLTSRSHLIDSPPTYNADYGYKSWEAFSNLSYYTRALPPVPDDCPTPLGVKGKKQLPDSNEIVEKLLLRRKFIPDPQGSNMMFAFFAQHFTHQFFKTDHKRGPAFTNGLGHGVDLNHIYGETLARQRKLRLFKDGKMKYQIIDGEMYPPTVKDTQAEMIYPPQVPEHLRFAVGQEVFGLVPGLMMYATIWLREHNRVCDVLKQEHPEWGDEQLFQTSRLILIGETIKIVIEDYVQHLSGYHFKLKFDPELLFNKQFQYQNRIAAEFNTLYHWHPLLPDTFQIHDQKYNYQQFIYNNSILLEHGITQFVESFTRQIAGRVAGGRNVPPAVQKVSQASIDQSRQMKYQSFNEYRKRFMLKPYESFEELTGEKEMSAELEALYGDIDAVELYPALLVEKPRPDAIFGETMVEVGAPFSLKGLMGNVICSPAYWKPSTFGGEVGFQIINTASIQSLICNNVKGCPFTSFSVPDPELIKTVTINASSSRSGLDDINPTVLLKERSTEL
Method: (§1) Inhibitory activity against human COX-1and COX-2was assessed in COS cells which had been stably transfected with cDNA for human COX-1and human COX-2. 24Hours prior to experiment, COS cells were transferred from the 175 cm^2flasks in which they were grown, onto 24-well cell culture plates using the following procedure. The incubation medium (Dulbecco's modified eagles medium (DMEM) supplemented with heat-inactivated foetal calf serum (10% v/v), penicillin (100 IU/ml), streptomycin (100 μg/ml) and geneticin (600 μg/ml)) was removed from a flask of confluent cells (1flask at confluency contains approximately 1×10^7 cells). 10 ml of phosphate buffered saline (PBS) was added to the flask to wash the cells. Having discarded the PBS, cells were then rinsed in 10 ml trypsin for 20 seconds, after which the trypsin was removed and the flask placed in an incubator (37°) for 1-2 minutes until cells became detached from the flask. The flask was then removed from the incubator and cells resuspended in 10 ml of fresh incubation medium. The contents of the flask was transferred to a 250 ml sterile container and the volume of incubation medium subsequently made up to 100 ml. […] If more than 1 flask of cells were required, the cells from the individual flasks were combined before being dispensed into the 24-well plates.
(§2) Following the overnight incubation, the incubation medium was completely removed from the 24-well cell culture plates and replaced with 250 μl fresh DMEM (37° C.). The test compounds were made up to 250× the required test concentration in DMSO and were added to the wells in a volume of 1 μl. […] Plates were then incubated for a further 15 minutes, after which the incubation medium was removed from each well of the plates and stored at −20° C., prior to determination of prostaglandin E2(PGE2) levels using enzyme immunoassay. […] The selectivity ratio of inhibition of COX-1 versus COX-2 was calculated by comparing respective IC50 values.

human COX-1 = molecular target: T2, human COX-1 (Homo sapiens, UniProt P23219); assay: Inhibition of PGE2 release in COS cells stably transfected with human COX-1; assay type: cell-based; settings: 30 μM arachidonic acid, PGE2 release by enzyme immunoassay
T2 construct: expressed in transfected cells
T2 sequence (P23219 24-599): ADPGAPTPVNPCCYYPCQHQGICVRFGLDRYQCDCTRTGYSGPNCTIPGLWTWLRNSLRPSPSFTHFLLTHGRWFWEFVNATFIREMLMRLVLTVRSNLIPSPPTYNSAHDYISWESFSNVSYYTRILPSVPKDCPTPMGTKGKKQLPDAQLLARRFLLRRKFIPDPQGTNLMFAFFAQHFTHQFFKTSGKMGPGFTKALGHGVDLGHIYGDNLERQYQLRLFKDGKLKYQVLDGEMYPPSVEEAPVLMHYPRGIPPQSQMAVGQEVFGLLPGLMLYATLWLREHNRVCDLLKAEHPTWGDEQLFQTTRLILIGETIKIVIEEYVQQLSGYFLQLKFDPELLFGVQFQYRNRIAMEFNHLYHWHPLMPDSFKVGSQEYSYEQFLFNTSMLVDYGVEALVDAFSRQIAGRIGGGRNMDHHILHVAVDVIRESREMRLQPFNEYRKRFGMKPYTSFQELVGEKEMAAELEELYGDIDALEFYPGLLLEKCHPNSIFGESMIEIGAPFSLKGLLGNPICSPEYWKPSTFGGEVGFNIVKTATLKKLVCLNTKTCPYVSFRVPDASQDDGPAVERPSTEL
Method: as §1, §2

Compound | IC50 (human COX-2) | IC50 (human COX-1)
CS(=O)(=O)c1ccc(-c2c(-c3ccc(OC(F)F)cc3)nn3ncccc23)cc1 [Example 5, 2-(4-Difluoromethoxy-phenyl)-3-(4-methanesulfonyl-phenyl)-pyrazolo[1,5-b]pyridazine] | 21 nM | > 100000 nM
CCOc1ccc(-c2nn3ncccc3c2-c2ccc(S(C)(=O)=O)cc2)cc1 [3(ii), 2-(4-Ethoxy-phenyl)-3-(4-methanesulfonyl-phenyl)-pyrazolo[1,5-b]pyridazine] | – | > 100000 nM
COc1ccc(-c2nn3ncccc3c2-c2ccc(S(C)(=O)=O)cc2)cc1 [2(ii), 3-(4-Methanesulfonyl-phenyl)-2-(4-methoxy-phenyl)-pyrazolo[1,5-b]pyridazine] | < 10 nM | –
CS(=O)(=O)c1ccc(-c2c(-c3ccc(F)cc3)nn3nc(OC(F)F)ccc23)cc1 [1(v), 6-Difluoromethoxy-2-(4-fluoro-phenyl)-3-(4-methanesulfonyl-phenyl)-pyrazolo[1,5-b]pyridazine] | 35 nM | > 100000 nM
CS(=O)(=O)c1ccc(-c2c(-c3cccc(F)c3)nn3nc(OC(F)F)ccc23)cc1 [7(viii), 6-Difluoromethoxy-2-(3-fluoro-phenyl)-3-(4-methanesulfonyl-phenyl)-pyrazolo[1,5-b]pyridazine] | 16 nM | > 55200 nM
